Data reported in PMC6317416, “Thermophilic phosphoribosyltransferases Thermus thermophilus HB27 in nucleotide synthesis” (Beilstein Journal of Organic Chemistry, 2018).

Tested on: T1, TthHPRT (hypoxanthine phosphoribosyltransferase Thermus thermophilus HB27)
T1 construct: gene hpt; C-terminal His-tag (pET-23a+), E. coli C3030
Assay: HPLC product quantification, initial rate, nonlinear regression
Assay type: biochemical
Settings: 5 mM MgCl2, 20 mM Tris-HCl pH 8.0, 70 °C
Description: HPLC product quantification, initial rate, nonlinear regression on TthHPRT (hypoxanthine phosphoribosyltransferase Thermus thermophilus HB27)

Row | SMILES | Km (1 mM PRPP) | Km (0.50 mM hypoxanthine)
1 | Nc1nc2[nH]cnc2c(=O)[nH]1 [guanine] | 28 ± 9 µM | –
2 | O=P(O)(O)OC[C@H]1O[C@H](OP(=O)(O)OP(=O)(O)O)[C@H](O)[C@@H]1O [PRPP] | – | 220 ± 60 µM
3 | O=c1[nH]cnc2nc[nH]c12 [hypoxanthine] | 13 ± 4 µM | –
